The source of these data is patent US6610689B2, “HIV protease inhibitors based on amino acid derivatives” (priority 2001, dated 2003).

Where a name gives a salt, the structure may show the parent alone.

For one assay, the target named is T1, HIV protease (Human immunodeficiency virus type 1 group M subtype B, UniProt P04585).
T1 construct: A third viral enzyme known as protease then cleaves the polyproteins
As to the kind of experiment: Enzymatic Assay for Determining the Inhibition Constant (Ki) of Synthetic Compounds Targeting the HIV Protease (fluorometric FRET assay). The format is biochemical.
Conditions: not given
The method in brief:
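Ki obtained via the Henderson equation from enzyme velocities with and without compound, accounting for substrate concentration and Km. Activity followed by FRET fluorescence from cleavage of a substrate flanked by EDANS donor and DABCYL acceptor.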
Turning to `Cc1ccc(S(=O)(=O)N(CC(C)C)[C@H](CO)CCCCNC(=O)[C@H](Cc2ccccc2F)NC(=O)OC(C)(C)C)cc1` [Example 138, (2S,2′S) 2-N-Isobutyl-2-N-(4-methylbenzenesulfonyl)-6-N-(N′α-tert-butoxycarbonyl-S-2-fluorophenylalanyl)-2,6-diaminohexanol], the Ki turned out to be 10 nM. In turn, `Cc1ccc(S(=O)(=O)N(CC(C)C)[C@@H](CCCCNC(=O)[C@H](Cc2ccc(OCc3ccccc3)cc2)NC(=O)OC(C)(C)C)C(=O)O)cc1` [Example 87, Nα-Isobutyl-Nα-(4-methylbenzenesulfonyl)-Nε-(N′α-tert-butoxycarbonyl-O-benzyl-L-tyrosyl)-L-lysine] showed a Ki of 49 nM.

Consider `COc1ccc(CC(=O)N[C@@H](Cc2c[nH]c3ccccc23)C(=O)NCCCC[C@@H](CO)N(CC(C)C)S(=O)(=O)c2ccc(C)cc2)cc1` [Example 165, (2S,2′S) 2-N-Isobutyl-2-N-(4-methylbenzenesulfonyl)-6-N-[N′α-(4-methoxyphenylacetyl)-S-tryptophanyl]-2,6-diaminohexanol], for which the affinity, expressed as Ki, was 1.1 nM. Compound `Cc1ccc(S(=O)(=O)N(CC(C)C)[C@H](CO)CCCCNC(=O)[C@H](Cc2c[nH]c3ccccc23)NS(=O)(=O)c2cccs2)cc1` [Example 129, (2S,2′S) 2-N-Isobutyl-2-N-(4-methylbenzenesulfonyl)-6-N-[N′α-(2-thiophenesulfonyl)-S-tryptophanyl]-2,6-diaminohexanol] came in with a Ki of 1 nM. On the same count and under the same terms, in the case of `CC(=O)N[C@@H](Cc1c[nH]c2ccccc12)C(=O)NCCCC[C@@H](CO)N(CC(C)C)S(=O)(=O)c1ccc(N)cc1` [Example 168, (2S,2′S) 2-N-(4-Aminobenzenesulfonyl)-2-N-isobutyl-6-N-(N′α-acetyl-S-tryptophanyl)-2,6-diaminohexanol] it was 3.8 nM; in that of `CC(=O)Nc1ccc(S(=O)(=O)N[C@@H](Cc2ccccc2)C(=O)NCCCC[C@@H](C(=O)O)N(CC(C)C)S(=O)(=O)c2ccc(N)cc2)cc1` [Example 56, Nα-(4-Aminobenzenesulfonyl)-Nα-isobutyl-Nε-[N′α-(4-acetylaminobenzenesulfonyl)-L-phenylalanyl]-L-lysine], 1.9 nM. As to `CSCC[C@H](N)C(=O)NCCCC[C@@H](C(=O)O)N(CC(C)C)S(=O)(=O)c1ccc(C)cc1` [Example 89, Nα-Isobutyl-Nα-(4-methylbenzenesulfonyl)-Nε-(L-methionyl)-L-lysine], the Ki is 33 nM.

Consider `CC(=O)Nc1ccc(S(=O)(=O)N[C@@H](Cc2ccccc2)C(=O)NCCCC[C@@H](C(=O)O)N(CC(C)C)S(=O)(=O)c2ccc([N+](=O)[O-])cc2)cc1` [Example 28, Nα-Isobutyl-Nα-(4-nitrobenzenesulfonyl)-Nε-[N′α-(4-acetamidobenzenesulfonyl)-L-phenylalanyl]-L-lysine], for which the Ki came to 9.3 nM. For the compound `Cc1ccc(S(=O)(=O)N[C@@H](Cc2ccccc2)C(=O)NCCCC[C@H](C(=O)O)N(CC(C)C)S(=O)(=O)c2ccc(C)cc2)cc1` [Example 67, Nα-Isobutyl-Nα-(4-methylbenzenesulfonyl)-Nε-[N′α-(4-methylbenzenesulfonyl)-L-phenylalanyl]-D-lysine], the Ki is above 300 nM. On the same count and under the same terms, the same measure for `Cc1ccc(S(=O)(=O)N(CC(C)C)[C@H](CO)CCCCNC(=O)[C@H](Cc2c[nH]c3ccccc23)NC(=O)c2ccccc2)cc1` [Example 191, (2S,2′S) 2-N-Isobutyl-2-N-(4-methylbenzenesulfonyl)-6-N-(N′α-benzoyl-S-tryptophanyl)-2,6-diaminohexanol]: 3.8 nM; for `Cc1ccc(S(=O)(=O)N(CC(C)C)[C@@H](CCCCNC(=O)[C@H](Cc2c[nH]c3ccccc23)NS(=O)(=O)c2ccccc2)C(=O)O)cc1` [Example 4, Nα-Isobutyl-Nα-(4-methylbenzenesulfonyl)-Nε-(N′α-benzenesulfonyl-L-tryptophanyl)-L-lysine]: 1 nM; for `CNC(=O)N[C@@H](Cc1ccccc1)C(=O)NCCCC[C@@H](C(=O)O)N(CC(C)C)S(=O)(=O)c1ccc(C)cc1` [Example 198, Nα-Isobutyl-Nα-(4-methylbenzenesulfonyl)-Nε-(N′α-methylaminocarbonyl-L-phenylalanyl)-L-lysine]: 1.1 nM.

`Cc1ccc(S(=O)(=O)N[C@@H](CCCCN)C(=O)NCCCC[C@@H](C(=O)O)N(CC(C)C)S(=O)(=O)c2ccc(C)cc2)cc1` [Example 39, Nα-Isobutyl-Nα-(4-methylbenzenesulfonyl)-Nε-[N′α-(4-methylbenzenesulfonyl)-L-lysyl]-L-lysine] displayed a Ki above 300 nM. On the same count and under the same terms, in the case of `Cc1ccc(S(=O)(=O)N[C@@H](CC(N)=O)C(=O)NCCCC[C@@H](C(=O)O)N(CC(C)C)S(=O)(=O)c2ccc(N)cc2)cc1` [Example 47, Nα-(4-Aminobenzenesulfonyl)-Nα-isobutyl-Nε-[N′α-(4-methylbenzenesulfonyl)-L-asparagyl]-L-lysine] it was 54 nM; in that of `COc1ccc(CC(=O)N[C@@H](Cc2ccccc2)C(=O)NCCCC[C@@H](C(=O)O)N(CC(C)C)S(=O)(=O)c2ccc(N)cc2)cc1` [Example 163, Nα-(4-Aminobenzenesulfonyl)-Nα-isobutyl-Nε-[N′α-(4-methoxyphenylacetyl)-L-phenylalanyl]-L-lysine], 0.27 nM; in that of `CC(C)CN([C@H](CO)CCCCNC(=O)[C@H](Cc1ccccc1)NS(=O)(=O)c1ccc([N+](=O)[O-])cc1)S(=O)(=O)c1ccc(N)cc1` [Example 194, (2S,2′S) 2-N-(4-Aminobenzenesulfonyl)-2-N-isobutyl-6-N-[N′α-(4-nitrobenzenesulfonyl)-S-phenylalanyl]-2,6-diaminohexanol], 85 nM. Still for that read-out and setting: in the case of `Cc1ccc(S(=O)(=O)N(CC(C)C)[C@@H](CCCCNC(=O)[C@H](Cc2ccccc2)NS(=O)(=O)c2cccs2)C(N)=O)cc1` [Example 58, Nα-Isobutyl-Nα-(4-methylbenzenesulfonyl)-Nε-[N′α-(2-thiophenesulfonyl)-L-phenylalanyl]-L-lysinamide] it was 5.2 nM; in that of `Cc1ccc(S(=O)(=O)N(CC(C)C)[C@@H](CCCCNC(=O)[C@H](Cc2ccccc2)NC(=O)N2CCCC2)C(=O)O)cc1` [Example 197, Nα-Isobutyl-Nα-(4-methylbenzenesulfonyl)-Nε-(N′α-pyrrolidinecarbonyl-L-phenylalanyl)-L-lysine], 1.7 nM. The same measure, in the same setting: the same measure for `COC(=O)[C@H](CCCCNC(=O)[C@H](Cc1c[nH]c2ccccc12)NC(=O)OC(C)(C)C)N(CC1CCCC1)S(=O)(=O)c1ccc(OC)cc1` [Example 150, Nα-Cyclopentylmethyl-Nα-(4-methoxybenzenesulfonyl)-Nε-(N′α-tert-butoxycarbonyl-L-tryptophanyl)-L-lysine Methyl Ester]: above 300 nM. With `CC(C)CN([C@@H](CCCCNC(=O)[C@H](Cc1c[nH]c2ccccc12)NS(=O)(=O)c1ccc(N)cc1)C(=O)O)S(=O)(=O)c1ccc(N)cc1` [Example 5, Nα-Isobutyl-Nα-(4-aminobenzenesulfonyl)-Nε-[N′α-(4-aminobenzenesuifonyl)-L-tryptophanyl]-L-lysine], affinity was put at a Ki of 0.459 nM.

The assay is the same for the next values; noted with them: Anti-protease activity of Ne-amino acid substituted L-lysine derivatives and analogs of formula I; read-out: Ki.
As for `Cc1ccc(S(=O)(=O)N(CC(C)C)[C@@H](CCCCNC(=O)[C@H](Cc2ccccc2)NS(=O)(=O)c2cccs2)C(=O)NN)cc1` [Example 64, Nα-Isobutyl-Nα-(4-methylbenzenesulfonyl)-Nε-[N′α-(2-thiophenesulfonyl)-L-phenylalanyl]-L-lysine Hydrazide], the Ki was above 300 nM.

The same assay, now with this note: Table 1, compounds of formula I; read-out: Ki (anti-protease activity).
For the compound `Cc1ccc(S(=O)(=O)N(CC(C)C)[C@H](CO)CCCCNC(=O)[C@@H](N)Cc2c[nH]c3ccccc23)cc1` [Example 183, (2S,2′S) 2-N-Isobutyl-2-N-(4-methylbenzenesulfonyl)-6-N-(S-tryptophanyl)-2,6-diaminohexanol Trifluoroacetic Acid Salt], the Ki was 4.4 nM. Regarding `CC(C)CN(CC(=O)NCCCC[C@@H](CO)N(CC(C)C)S(=O)(=O)c1ccc(N)cc1)c1ccccc1` [Example 181, (2S) 2-N-(4-Aminobenzenesulfonyl)-2-N-isobutyl-6-N-(N′α-isobutyl-N′α-phenylglycyl)-2,6-diaminohexanol], the Ki amounted to 16 nM.

Broadly, the Ki is a measure of affinity in units of concentration, obtained from inhibition or displacement.
